Experimental findings from publication PMC6934184, “Selective DNA-PKcs inhibition extends the therapeutic index of localized radiotherapy and chemotherapy” (The Journal of Clinical Investigation, 2019) are described below.

What is called inhibition is the share of the control response that was lost under treatment.

This experiment concerns the target T1, NTRK2 (TRKB) (Homo sapiens, UniProt Q16620).
T1 construct: purchased Thermo Fisher Scientific (Life Technologies) SelectScreen
Kind of experiment: SelectScreen Z'LYTE. In kind it is biochemical. The method, boiled down:
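NU5455 was profiled across the SelectScreen Broad panel of kinase activity and binding assays. Z'LYTE reactions such as CSF1R ran at apparent Km ATP, while the Adapta CAMK1 assay used ATP listed as 10. Values are given as percent.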

Each structure is given as a SMILES string.

T1 sequence (Q16620 32-822): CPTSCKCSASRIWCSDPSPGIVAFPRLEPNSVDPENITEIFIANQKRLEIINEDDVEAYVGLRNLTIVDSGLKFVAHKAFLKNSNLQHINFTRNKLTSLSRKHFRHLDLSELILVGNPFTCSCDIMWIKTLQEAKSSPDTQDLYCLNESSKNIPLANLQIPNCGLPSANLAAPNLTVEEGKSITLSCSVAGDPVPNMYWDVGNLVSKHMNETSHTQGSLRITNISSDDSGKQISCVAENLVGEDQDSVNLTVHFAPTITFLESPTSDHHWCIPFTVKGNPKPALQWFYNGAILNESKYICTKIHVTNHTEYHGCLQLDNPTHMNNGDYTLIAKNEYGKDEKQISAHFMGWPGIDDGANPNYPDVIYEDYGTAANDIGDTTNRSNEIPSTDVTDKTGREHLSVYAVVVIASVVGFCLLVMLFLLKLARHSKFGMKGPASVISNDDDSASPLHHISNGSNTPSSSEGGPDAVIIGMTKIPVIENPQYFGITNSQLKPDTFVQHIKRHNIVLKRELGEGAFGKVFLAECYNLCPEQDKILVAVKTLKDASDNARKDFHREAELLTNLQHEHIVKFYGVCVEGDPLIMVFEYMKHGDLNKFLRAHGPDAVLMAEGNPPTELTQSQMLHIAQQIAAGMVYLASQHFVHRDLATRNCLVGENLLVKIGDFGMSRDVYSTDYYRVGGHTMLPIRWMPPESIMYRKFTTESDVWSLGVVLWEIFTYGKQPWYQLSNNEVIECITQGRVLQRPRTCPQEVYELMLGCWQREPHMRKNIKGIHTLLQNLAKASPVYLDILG

`CN(C(=O)CN1CCOCC1)c1ccc2sc3c(-c4cccc5c(=O)cc(N6CC7CCC(C6)O7)oc45)cccc3c2c1` [NU5455]: testing at 1 µM gave an inhibition of 5.1%.
